Data: ChEMBL document CHEMBL1129327, “Diphenylpropionic acids as new AT1 selective angiotensin II antagonists” (J Med Chem, 1996)

Experiments:
[1] = molecular target: T1, Angiotensin II receptor (AT-1) type-1 (Rattus norvegicus, UniProt P29089+P25095); assay: Inhibitory concentration was evaluated by measuring displacement of [3H]AII from rat liver Angiotensin II receptor, type 1
T1 sequence (P29089 whole entry): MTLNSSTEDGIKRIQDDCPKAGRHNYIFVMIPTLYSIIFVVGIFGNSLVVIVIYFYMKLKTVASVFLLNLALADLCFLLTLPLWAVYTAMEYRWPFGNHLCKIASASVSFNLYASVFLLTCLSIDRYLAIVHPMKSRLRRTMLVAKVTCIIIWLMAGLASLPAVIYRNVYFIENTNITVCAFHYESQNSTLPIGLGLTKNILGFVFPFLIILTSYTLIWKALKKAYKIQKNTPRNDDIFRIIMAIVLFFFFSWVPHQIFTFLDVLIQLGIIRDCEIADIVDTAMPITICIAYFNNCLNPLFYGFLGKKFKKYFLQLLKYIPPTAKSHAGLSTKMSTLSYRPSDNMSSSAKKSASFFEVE
T1 sequence (P25095 whole entry): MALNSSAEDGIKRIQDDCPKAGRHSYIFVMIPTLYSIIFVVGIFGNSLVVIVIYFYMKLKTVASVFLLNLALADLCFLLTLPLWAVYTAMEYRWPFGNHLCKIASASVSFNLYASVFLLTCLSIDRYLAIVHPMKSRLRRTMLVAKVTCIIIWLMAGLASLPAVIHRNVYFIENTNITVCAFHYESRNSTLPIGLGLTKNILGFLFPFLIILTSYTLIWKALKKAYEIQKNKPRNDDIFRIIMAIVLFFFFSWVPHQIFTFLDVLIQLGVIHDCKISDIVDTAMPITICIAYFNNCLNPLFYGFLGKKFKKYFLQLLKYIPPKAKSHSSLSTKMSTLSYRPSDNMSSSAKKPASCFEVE

[2] = molecular target: Angiotensin II receptor (Rattus norvegicus) (UniProt P29089+P25095+P35351); assay: In vivo inhibitory percentage of pressor response induced by exogenous submaximal dose of angiotensin-II (3 ug/kg) administered iv to pithed rats; format: functional, organism-based
Sequence of Angiotensin II receptor (Rattus norvegicus) (P35351 whole entry, looked up, one chain of several): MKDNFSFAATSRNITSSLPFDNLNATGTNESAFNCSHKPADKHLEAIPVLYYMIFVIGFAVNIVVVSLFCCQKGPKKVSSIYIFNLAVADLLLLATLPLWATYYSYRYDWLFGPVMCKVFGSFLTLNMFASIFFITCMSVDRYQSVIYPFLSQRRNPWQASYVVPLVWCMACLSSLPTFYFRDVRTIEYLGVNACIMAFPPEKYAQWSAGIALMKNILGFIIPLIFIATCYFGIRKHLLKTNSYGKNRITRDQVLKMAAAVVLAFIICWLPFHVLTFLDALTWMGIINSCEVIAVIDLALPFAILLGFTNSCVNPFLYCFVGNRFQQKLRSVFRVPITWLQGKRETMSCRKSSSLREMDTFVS

Rattus norvegicus [3] = assay: (§1) In vivo inhibitory percentage of pressor response induced by exogenous submaximal dose of angiotensin -II […] administered iv to pithed rats; format: functional
Rattus norvegicus [4] = assay: as §1; format: functional; remark: listed apart in the source
Oryctolagus cuniculus [5] = species: Oryctolagus cuniculus; assay: Antagonism against A-2 induced contraction of aortic rings of rabbit.; conditions: read-out: pA2 (converted)
Oryctolagus cuniculus [6] = species: Oryctolagus cuniculus; assay: Antagonism against A-2 induced contraction of aortic rings from rabbit.; format: functional; conditions: Aorta, read-out: pA2 (converted)

SMILES | IC50 [1] [nM] | inhibition [2] [%] | other results
CCc1nc2c(C)cc(C)nc2n1Cc1ccc(C(=C(C(=O)O)C(=O)O)c2ccccc2)cc1 | 320 | 69.2 | 
CCc1nc2c(C)cc(C)nc2n1Cc1ccc(C(CCNS(=O)(=O)C(F)(F)F)c2ccccc2)cc1 (stereo not given) | > 10000 |  | 
CCc1nc2c(C)cc(C)nc2n1Cc1ccc(C(Cc2nnn[nH]2)c2ccccc2)cc1 (stereo not given) | 120 | 55.4 | 
CCc1nc2c(C)cc(C)nc2n1Cc1ccc(C(CC(=O)O)c2ccc(F)cc2F)cc1 (stereo not given) | 250 | 40.4 | 
CCc1nc2c(C)cc(C)nc2n1Cc1ccc(C(c2ccccc2)C(Cc2ccccc2)C(=O)O)cc1 (stereo not given) | 200 | 31.5 | 
CCc1nc2c(C)cc(C)nc2n1Cc1ccc(/C(=C(/Br)c2nn[nH]n2)c2ccccc2)cc1 (stereo in doubt; 22c) [listing 1 of 2 here] |  | 39.9 | 
CCc1nc2c(C)cc(C)nc2n1Cc1ccc(/C(=C\c2nn[nH]n2)c2ccccc2)cc1 (stereo in doubt; 22b) [listing 1 of 2 here] |  | < 10 | 
CCc1nc2c(C)cc(C)nc2n1Cc1ccc([C@H](c2ccccc2)[C@@H](C)C(=O)O)o1 | 5600 |  | Inhibition (Rattus norvegicus [3]): <10%
CCc1nc2c(C)cc(C)nc2n1Cc1ccc(C(c2ccccc2C)C(C(=O)O)C(=O)O)cc1 (stereo not given) | 210 | 62 | 
CCc1nc2c(C)cc(C)nc2n1Cc1ccc(/C(=C(/Br)c2nn[nH]n2)c2ccccc2)cc1 (stereo in doubt; 22d) [listing 1 of 2 here] | 290 |  | 
CCc1nc2c(C)cc(C)nc2n1Cc1ccc(/C(=C\C(=O)O)c2ccccc2)cc1 (stereo in doubt; 12A) [listing 1 of 2 here] |  | 30.4 | 
CCc1nc2c(C)cc(C)nc2n1Cc1ccc(/C(=C\c2nn[nH]n2)c2ccccc2)cc1 (stereo in doubt; 22a) [listing 1 of 2 here] | 92 |  | 
CCc1nc2c(C)cc(C)nc2n1Cc1ccc(C(C)C(C)C(=O)O)cc1 (stereo not given) |  | 46 | 
CCc1nc2c(C)cc(C)nc2n1Cc1ccc(C(C(C)C)C(C)C(=O)O)cc1 (stereo not given) | 600 | 30.4 | 
CCc1nc2c(C)cc(C)nc2n1Cc1ccc(C(CC(=O)O)c2ccccc2F)cc1 (stereo not given) | 130 | 68.7 | 
CCc1nc2c(C)cc(C)nc2n1Cc1ccc(C(CC(=O)O)c2ccccc2Cl)cc1 (stereo not given) | 200 | 69.1 | 

SMILES | IC50 [1] [nM] | inhibition [2] [%] | other results
CCc1nc2c(C)cc(C)nc2n1Cc1ccc(C(CC)C(C)C(=O)O)cc1 (stereo not given) | 330 | 45.7 | 
CCc1nc2c(C)cc(C)nc2n1Cc1ccc(/C(=C\C(=O)O)c2ccccc2)cc1 (stereo in doubt; 12B) [listing 1 of 2 here] | 170 |  | 
CCc1nc2c(C)cc(C)nc2n1Cc1ccc(/C(=C\C(=O)O)c2ccccc2)cc1 (stereo in doubt; 12A) [listing 2 of 2 here] | 120 |  | 
CCc1nc2c(C)cc(C)nc2n1Cc1ccc(C(CC(=O)NS(=O)(=O)c2ccccc2)c2ccccc2)cc1 (stereo not given) | 360 | 48.2 | 
CCc1nc2c(C)cc(C)nc2n1Cc1ccc(C(CC(=O)O)c2ccc(-c3ccncc3)cc2)cc1 (stereo not given) | 5300 |  | 
CCc1nc2c(C)cc(C)nc2n1Cc1ccc(/C(=C\c2nn[nH]n2)c2ccccc2)cc1 (stereo in doubt; 22a) [listing 2 of 2 here] |  | 41 | 
CCc1nc2c(C)cc(C)nc2n1Cc1ccc(C(CC(=O)O)c2ccc(OC)cc2)cc1 (stereo not given) | 3700 |  | 
CCc1nc2c(C)cc(C)nc2n1Cc1ccc(C(c2ccc(C)cc2)C(C(=O)O)C(=O)O)cc1 (stereo not given) | 1100 | 17.1 | 
CCc1nc2c(C)cc(C)nc2n1Cc1ccc(C(Cc2ccccc2)C(C(=O)O)C(=O)O)cc1 (stereo not given) | > 10000 | < 10 | 
CCCCc1nc(Cl)c(CO)n1Cc1ccc(-c2ccccc2-c2nnn[nH]2)cc1 [LOSARTAN] |  |  | Inhibition (Rattus norvegicus [3]): 93.5%; Inhibition (Rattus norvegicus [4]): 62.5%; Kb (Oryctolagus cuniculus [6]): 2.95 nM
CCc1nc2c(C)cc(C)nc2n1Cc1ccc(C(c2cccc(C)c2)C(C(=O)O)C(=O)O)cc1 (stereo not given) | 450 | 61.7 | 
CCc1nc2c(C)cc(C)nc2n1Cc1ccc(C(CC(=O)NS(C)(=O)=O)c2ccccc2)cc1 (stereo not given) | 94 | 72.7 | 
CCc1nc2c(C)cc(C)nc2n1Cc1ccc(/C(=C\C(=O)O)c2ccccc2)cc1 (stereo in doubt; 12B) [listing 2 of 2 here] |  | 22.9 | 
CCc1nc2c(C)cc(C)nc2n1Cc1ccc(/C(=C\c2nn[nH]n2)c2ccccc2)cc1 (stereo in doubt; 22b) [listing 2 of 2 here] | 130 |  | 
CCc1nc2c(C)cc(C)nc2n1Cc1ccc(/C(=C(/Br)c2nn[nH]n2)c2ccccc2)cc1 (stereo in doubt; 22d) [listing 2 of 2 here] |  | 22.8 | 
CCc1nc2c(C)cc(C)nc2n1Cc1ccc(/C(=C(/Br)c2nn[nH]n2)c2ccccc2)cc1 (stereo in doubt; 22c) [listing 2 of 2 here] | 44 |  | 

Further lines, with some results ahead:

IC50 [1] [nM] | inhibition [2] [%] | SMILES | other results
440 |  | CCc1nc2c(C)cc(C)nc2n1Cc1ccc([C@H](c2ccccc2)[C@@H](C)C(=O)O)cc1 (stereo in doubt; (+)37g) | Inhibition (Rattus norvegicus [3]): 19.7%
180 |  | CCc1nc2c(C)cc(C)nc2n1Cc1ccc([C@H](c2ccccc2)[C@@H](C)C(=O)O)cc1 (stereo in doubt; (-)37g) | Inhibition (Rattus norvegicus [3]): 22.1%
240 | 50.7 | CCc1nc2c(C)cc(C)nc2n1Cc1ccc(C(c2ccccc2)C(C)(C)C(=O)O)cc1 (stereo not given) | 
58 |  | CCc1nc2c(C)cc(C)nc2n1Cc1ccc([C@H](c2ccccc2)[C@H](C)C(=O)NS(C)(=O)=O)cc1 | Inhibition (Rattus norvegicus [3]): 71.3%; Inhibition (Rattus norvegicus [4]): 55.9%
170 | 47.1 | CCc1nc2c(C)cc(C)nc2n1Cc1ccc(C(c2ccccc2)C(Br)C(=O)O)cc1 (stereo not given) | 
83 |  | CCC[C@H](C(=O)O)[C@@H](c1ccccc1)c1ccc(Cn2c(CC)nc3c(C)cc(C)nc32)cc1 | Inhibition (Rattus norvegicus [3]): 73.8%; Inhibition (Rattus norvegicus [4]): 64%
69 |  | CCc1nc2c(C)cc(C)nc2n1Cc1ccc([C@H](c2ccccc2)[C@H](C)C(=O)O)cc1 (stereo in doubt; 36g) | Kb (Oryctolagus cuniculus [5]): 2.04 nM; Inhibition (Rattus norvegicus [3]): 84.8%; Inhibition (Rattus norvegicus [4]): 68.5%
71 |  | CCc1nc2c(C)cc(C)nc2n1Cc1ccc([C@H](c2ccccc2)[C@H](C)C(=O)O)cc1 (stereo in doubt; (+36)g) | Inhibition (Rattus norvegicus [3]): 80.9%
50 |  | CCc1nc2c(C)cc(C)nc2n1Cc1ccc([C@H](c2ccccc2)[C@H](CC)C(=O)O)cc1 | Inhibition (Rattus norvegicus [3]): 86.1%; Inhibition (Rattus norvegicus [4]): 73.3%; Kb (Oryctolagus cuniculus [6]): 3.89 nM
4800 |  | CCc1nc2c(C)cc(C)nc2n1Cc1ccc([C@H](c2ccccc2)[C@H](C)C(=O)O)o1 | Inhibition (Rattus norvegicus [3]): <10%
 | 32.3 | CCc1nc2c(C)cc(C)nc2n1Cc1ccc(C(c2ccccc2)C(C(=O)O)C(F)(F)F)cc1 (stereo not given) | 
110 | 68.5 | CCc1nc2c(C)cc(C)nc2n1Cc1ccc(C(CC(=O)O)c2ccccc2)cc1 (stereo not given) | 
71 | 73.7 | CCc1nc2c(C)cc(C)nc2n1Cc1ccc(C(c2ccccc2)C(C)C(=O)O)cc1 (stereo not given) | 
120 | 79.9 | CCc1nc2c(C)cc(C)nc2n1Cc1ccc(C(c2ccccc2)C(C(=O)O)C(=O)O)cc1 (stereo not given) | 
590 |  | CCC[C@@H](C(=O)O)[C@@H](c1ccccc1)c1ccc(Cn2c(CC)nc3c(C)cc(C)nc32)cc1 | Inhibition (Rattus norvegicus [3]): 27.8%
76 |  | CCc1nc2c(C)cc(C)nc2n1Cc1ccc([C@H](c2ccccc2)[C@H](C)C(=O)O)cc1 (stereo in doubt; (-36)g) | Inhibition (Rattus norvegicus [3]): 80.3%
450 |  | CCc1nc2c(C)cc(C)nc2n1Cc1ccc([C@H](c2ccccc2)[C@@H](CC)C(=O)O)cc1 | Inhibition (Rattus norvegicus [3]): 44.9%
78 | 76.2 | CCc1nc2c(C)cc(C)nc2n1Cc1ccc(C(c2ccccc2)C(CC)C(=O)O)cc1 (stereo not given) | 
160 | 68.7 | CCc1nc2c(C)cc(C)nc2n1Cc1ccc(C(c2ccccc2)C(C#N)C(=O)O)cc1 (stereo not given) | 
250 |  | CCc1nc2c(C)cc(C)nc2n1Cc1ccc([C@H](c2ccccc2)[C@@H](C)C(=O)O)cc1 (stereo in doubt; 37g) | Inhibition (Rattus norvegicus [3]): 28.2%; Kb (Oryctolagus cuniculus [6]): 49 nM
